Measurements taken from BindingDB's records for doi:10.1021/jm00116a002 (Abbott Laboratories, 1992).

Key:
[1] = molecular target: Gastrin/cholecystokinin type B receptor (Cavia porcellus); experiment: The compound was tested for the inhibition of [125I]-Bolton-Hunter CCK-8 binding to cholecystokinin type B receptor in guinea pig cerebral cortical
[2] = molecular target: Gastrin/cholecystokinin type B receptor (Cavia porcellus); experiment: The compound was tested for the inhibition of [125I]-Bolton-Hunter CCK-8 binding to cholecystokinin type B receptor in guinea pig cerebral cortical; Not determined

IC50 [1] [µM]	IC50 [2] [µM]	SMILES
> 10		CCCCCN(CCCCC)C(=O)[C@@H](Cc1c[nH]c2ccccc12)NC(=O)c1ccc2cccc(O)c2n1
	> 10	CCCCCN(CCCCC)C(=O)[C@@H](Cc1c(Sc2ccccc2[N+](=O)[O-])[nH]c2ccccc12)NC(=O)c1cnc2ccccc2c1
10		CN(Cc1ccccc1)C(=O)[C@@H](Cc1c[nH]c2ccccc12)NC(=O)c1cnc2ccccc2c1
> 10		CCCCCN(CCCCC)C(=O)[C@H](Cc1c[nH]c2ccccc12)NC(=O)c1ccc(Cl)c(Cl)c1
> 10		CCCCCN(CCCCC)C(=O)[C@@H](Cc1c[nH]c2ccccc12)NC(=O)c1ccc(Cl)c(Cl)c1
20		CCCCCN(CCCCC)C(=O)[C@@H](Cc1c[nH]c2ccccc12)NC(=O)c1c[nH]c2ccccc12
9.7		CCCCCN(CCCCC)C(=O)[C@@H](Cc1c[nH]c2ccccc12)NC(=O)c1cccc2ccccc12
4.1		CCCCCN(CCCCC)C(=O)[C@@H](CC1C(=O)Nc2ccccc21)NC(=O)c1cnc2ccccc2c1 (some centres not stated)
11		CCCCCN(CCCCC)C(=O)[C@@H](Cc1c[nH]c2ccccc12)NC(=O)c1ccc2ccccc2c1
	> 10	CCCCCN(CCCCC)C(=O)[C@@H](Cc1c[nH]c2ccccc12)NC(=O)/C=C/c1cccnc1
> 10		C[C@H](NC(=O)[C@@H](Cc1c[nH]c2ccccc12)NC(=O)c1cnc2ccccc2c1)c1ccccc1
9.2		CCOC(=O)CN(Cc1ccccc1)C(=O)[C@@H](Cc1c[nH]c2ccccc12)NC(=O)c1cnc2ccccc2c1
